Results on 15 compounds are retold here after ChEMBL document CHEMBL1909046, “DrugMatrix in vitro pharmacology data”.

The structures appear in SMILES notation.

Test [1] addresses T1, Alpha-1D adrenergic receptor (Homo sapiens, UniProt P25100).
T1 sequence (P25100 whole entry): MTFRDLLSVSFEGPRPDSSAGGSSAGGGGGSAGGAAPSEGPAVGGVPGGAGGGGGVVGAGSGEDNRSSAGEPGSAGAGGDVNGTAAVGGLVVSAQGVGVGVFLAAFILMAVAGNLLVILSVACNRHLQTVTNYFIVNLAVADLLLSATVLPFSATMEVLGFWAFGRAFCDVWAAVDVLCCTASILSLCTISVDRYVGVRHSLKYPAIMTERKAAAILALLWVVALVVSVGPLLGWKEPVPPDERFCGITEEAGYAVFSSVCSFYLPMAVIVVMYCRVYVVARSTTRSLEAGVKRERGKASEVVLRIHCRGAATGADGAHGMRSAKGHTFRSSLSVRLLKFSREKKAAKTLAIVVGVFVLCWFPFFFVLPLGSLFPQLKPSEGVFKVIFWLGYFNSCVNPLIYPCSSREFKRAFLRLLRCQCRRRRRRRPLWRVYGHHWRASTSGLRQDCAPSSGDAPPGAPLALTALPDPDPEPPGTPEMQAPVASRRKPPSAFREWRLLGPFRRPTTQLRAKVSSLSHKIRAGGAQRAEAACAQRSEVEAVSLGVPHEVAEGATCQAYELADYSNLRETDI
The test is classed as cell membranes, HEK293, Membrane.

Test [2] concerns the target Sodium-dependent noradrenaline transporter (Homo sapiens, UniProt P23975). As to the kind of experiment: DRUGMATRIX: Norepinephrine Transporter radioligand binding (ligand: [125I] RTI-55). The test is classed as cell membranes, MDCK, Membrane. The note with it: Not Active = under 50% inhibition at 10 µM; for Ki: read-out: Ki.
A short description of test [3]: DRUGMATRIX: beta-Lactamase enzyme inhibition (substrate: Nitrocefin). Set-up: species or system Bacillus cereus. The note with it: Not Active = under 50% inhibition at 10 µM.
Test [4] has as its target T2, C-X-C chemokine receptor type 2 (Homo sapiens, UniProt P25025). Further: in other assays of this panel Not Active means under 50% inhibition at 10 µM.
T2 sequence (P25025 whole entry): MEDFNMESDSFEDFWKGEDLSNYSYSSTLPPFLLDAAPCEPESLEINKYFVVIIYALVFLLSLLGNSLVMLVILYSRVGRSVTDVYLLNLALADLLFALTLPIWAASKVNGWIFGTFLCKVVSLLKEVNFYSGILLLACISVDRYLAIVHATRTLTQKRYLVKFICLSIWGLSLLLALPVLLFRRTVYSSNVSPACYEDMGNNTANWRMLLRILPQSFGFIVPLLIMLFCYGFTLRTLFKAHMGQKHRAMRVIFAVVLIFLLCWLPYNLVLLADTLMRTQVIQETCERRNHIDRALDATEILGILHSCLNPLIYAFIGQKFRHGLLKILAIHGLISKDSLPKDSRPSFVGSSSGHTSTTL
The test is classed as cell membranes, Membrane. The note with it: cho-k1.

In test [5] the target is Nitric oxide synthase 1 (Rattus norvegicus, UniProt P29476). Type of test: tissue-based, Cerebellum. Further: in other assays of this panel Not Active means under 50% inhibition at 10 µM.
Sequence of Nitric oxide synthase 1 (P29476 whole entry): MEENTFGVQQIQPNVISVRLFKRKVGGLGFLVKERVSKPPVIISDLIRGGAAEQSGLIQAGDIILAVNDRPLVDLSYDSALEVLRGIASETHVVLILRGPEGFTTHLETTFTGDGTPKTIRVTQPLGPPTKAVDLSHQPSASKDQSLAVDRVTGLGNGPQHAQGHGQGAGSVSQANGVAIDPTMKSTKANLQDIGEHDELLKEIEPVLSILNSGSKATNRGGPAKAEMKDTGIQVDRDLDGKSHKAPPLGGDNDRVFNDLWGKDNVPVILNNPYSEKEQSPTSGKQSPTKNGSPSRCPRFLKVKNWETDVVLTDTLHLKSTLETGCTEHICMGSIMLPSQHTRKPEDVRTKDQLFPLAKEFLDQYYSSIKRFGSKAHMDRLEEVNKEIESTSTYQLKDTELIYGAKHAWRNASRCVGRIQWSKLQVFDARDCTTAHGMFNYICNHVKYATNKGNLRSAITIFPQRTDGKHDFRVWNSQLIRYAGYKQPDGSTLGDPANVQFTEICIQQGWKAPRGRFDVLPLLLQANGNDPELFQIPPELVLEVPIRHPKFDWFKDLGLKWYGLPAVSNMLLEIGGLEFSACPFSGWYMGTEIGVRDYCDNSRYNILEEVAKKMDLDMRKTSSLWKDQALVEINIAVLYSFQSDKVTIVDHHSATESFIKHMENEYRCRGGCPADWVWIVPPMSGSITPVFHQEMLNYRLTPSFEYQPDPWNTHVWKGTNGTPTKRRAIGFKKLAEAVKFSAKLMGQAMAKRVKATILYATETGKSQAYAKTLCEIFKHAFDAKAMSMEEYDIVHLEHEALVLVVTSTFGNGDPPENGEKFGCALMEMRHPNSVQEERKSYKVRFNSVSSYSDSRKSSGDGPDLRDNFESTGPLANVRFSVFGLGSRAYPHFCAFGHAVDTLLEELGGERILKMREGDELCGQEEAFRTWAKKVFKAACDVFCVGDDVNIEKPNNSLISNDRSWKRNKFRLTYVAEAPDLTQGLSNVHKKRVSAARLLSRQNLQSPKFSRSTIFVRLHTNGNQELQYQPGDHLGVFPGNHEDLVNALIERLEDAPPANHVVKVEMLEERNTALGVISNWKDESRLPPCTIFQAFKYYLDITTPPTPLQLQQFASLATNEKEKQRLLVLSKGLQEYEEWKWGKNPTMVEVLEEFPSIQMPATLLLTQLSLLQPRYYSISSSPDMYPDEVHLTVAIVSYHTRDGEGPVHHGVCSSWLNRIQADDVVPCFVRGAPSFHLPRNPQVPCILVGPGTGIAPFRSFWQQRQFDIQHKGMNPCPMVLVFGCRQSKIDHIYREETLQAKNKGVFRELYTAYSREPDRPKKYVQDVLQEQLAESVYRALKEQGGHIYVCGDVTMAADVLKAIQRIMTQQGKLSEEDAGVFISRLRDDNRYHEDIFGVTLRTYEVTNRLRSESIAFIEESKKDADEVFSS
Test [6] can be described thus: DRUGMATRIX: Phorbol Ester radioligand binding (ligand: [3H] PDBu). Type of test: cell membranes, Mus musculus, ICR, Brain, Membrane. The note with it: Not Active = under 50% inhibition at 10 µM.
Test [7] addresses T3, Cathepsin G (Homo sapiens, UniProt P08311).
T3 sequence (P08311 whole entry): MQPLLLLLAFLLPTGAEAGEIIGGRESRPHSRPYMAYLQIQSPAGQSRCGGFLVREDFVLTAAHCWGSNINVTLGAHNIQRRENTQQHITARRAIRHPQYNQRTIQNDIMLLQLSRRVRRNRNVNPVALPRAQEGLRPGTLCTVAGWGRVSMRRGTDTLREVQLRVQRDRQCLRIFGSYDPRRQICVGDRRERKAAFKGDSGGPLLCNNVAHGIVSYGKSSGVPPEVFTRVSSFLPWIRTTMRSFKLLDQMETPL
Type of test: tissue-based. The note with it: neutrophil.

Sequence of Sodium-dependent noradrenaline transporter (P23975 whole entry): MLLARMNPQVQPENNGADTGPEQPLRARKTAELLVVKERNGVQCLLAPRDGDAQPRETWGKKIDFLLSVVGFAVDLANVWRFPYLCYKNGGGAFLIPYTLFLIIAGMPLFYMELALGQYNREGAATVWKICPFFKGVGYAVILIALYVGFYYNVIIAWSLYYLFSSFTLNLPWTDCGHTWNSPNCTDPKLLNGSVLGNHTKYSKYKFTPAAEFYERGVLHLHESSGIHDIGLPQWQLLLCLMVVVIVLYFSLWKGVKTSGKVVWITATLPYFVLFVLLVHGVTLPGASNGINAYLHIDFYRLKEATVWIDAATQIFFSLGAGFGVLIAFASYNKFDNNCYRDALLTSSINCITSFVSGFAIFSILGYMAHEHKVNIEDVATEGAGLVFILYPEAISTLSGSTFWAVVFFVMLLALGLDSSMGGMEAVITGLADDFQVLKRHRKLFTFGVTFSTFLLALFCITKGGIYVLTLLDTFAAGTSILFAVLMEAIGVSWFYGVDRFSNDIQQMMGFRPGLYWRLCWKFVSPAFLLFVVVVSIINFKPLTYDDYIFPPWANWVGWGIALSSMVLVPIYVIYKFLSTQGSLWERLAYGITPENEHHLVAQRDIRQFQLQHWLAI

In general, IC50 refers to the concentration at which inhibition is half-maximal. Usually Ki stands for a measure of affinity in units of concentration, obtained from inhibition or displacement. For the compound `CCOc1nc2cccc(C(=O)O)c2n1Cc1ccc(-c2ccccc2-c2nnn[nH]2)cc1`, the IC50 result in test [1] (hek293) was “Not Active”; in test [2] (read-out: IC50) it was 3070 nM; in test [3], “Not Active”; in test [4], “Not Active”; in test [5], “Not Active”; in test [6], “Not Active”. In test [7], the IC50 result is “Not Active”. For the same compound, the inhibition constant Ki in test [2] is 3040 nM; in test [3] it was “Not Active”; in test [6], “Not Active”.
Take `O=C(O)CCCc1cccs1`: the IC50 entry in test [1] (hek293), in test [2] (mdck), in test [3], in test [4], in test [5] and in test [6] was “Not Active” each time. For the same compound, in test [7], the IC50 result is “Not Active”. Moreover, the Ki entry in test [3] and in test [6] was “Not Active” throughout.
With `COc1ccccc1N`, the IC50 result in test [1] (hek293), in test [2] (mdck), in test [3], in test [4], in test [5] and in test [6] was “Not Active” in each case. In test [7], the IC50 result is reported as “Not Active”. In addition, the inhibition constant (Ki) result in test [3] and in test [6] was “Not Active” throughout.
With `O=C(c1ccccc1F)N1CCC(Cc2ccccc2)CC1`, the IC50 entry in test [1] (hek293), in test [2] (mdck), in test [3], in test [4], in test [5] and in test [6] was “Not Active” throughout. Besides, the half-maximal inhibitory concentration (IC50) entry in test [7] is “Not Active”. The Ki entry in test [3] and in test [6] was “Not Active” in each case.
Turning to `Cc1c(O)cccc1C(=O)N[C@@H](CSc1ccccc1)[C@H](O)CN1C[C@H]2CCCC[C@H]2C[C@H]1C(=O)NC(C)(C)C`, the half-maximal inhibitory concentration (IC50) entry in test [1] (hek293) is “Not Active”; in test [2] (read-out: IC50), 8850 nM; in test [3], “Not Active”; in test [4], “Not Active”; in test [5] it was “Not Active”; in test [6], “Not Active”. In addition, the concentration for half-maximal inhibition (IC50) result in test [7] is “Not Active”. Further, the inhibition constant (Ki) in test [2] was 8780 nM; in test [3], “Not Active”; in test [6], “Not Active”.
For `CC(O)COC[C@H]1O[C@@H]2O[C@H]3[C@H](O)[C@@H](O)[C@@H](O[C@H]4[C@H](O)[C@@H](O)[C@@H](O[C@H]5[C@H](O)[C@@H](O)[C@@H](O[C@H]6[C@H](O)[C@@H](O)[C@@H](O[C@H]7[C@H](O)[C@@H](O)[C@@H](O[C@H]8[C@H](O)[C@@H](O)[C@@H](O[C@H]1[C@H](O)[C@H]2O)O[C@@H]8COCC(C)O)O[C@@H]7COCC(C)O)O[C@@H]6COCC(C)O)O[C@@H]5COCC(C)O)O[C@@H]4COCC(C)O)O[C@@H]3COCC(C)O` (stereo partly drawn) [2-HYDROXYPROPYL-BETA-CYCLODEXTRIN], the IC50 entry in test [1] (hek293) was “Not Active”; in test [2] (read-out: IC50), 1270 nM; in test [3] it was “Not Active”; in test [4], “Not Active”; in test [5] it was “Not Active”; in test [6], “Not Active”. In addition, in test [7], the IC50 entry was “Not Active”. For the same compound, the Ki was 1260 nM in test [2], “Not Active” in test [3] and “Not Active” in test [6].
Regarding `NC(=O)c1cccc(N)c1` [3-AMINOBENZAMIDE], the IC50 entry in test [1] (hek293), in test [2] (mdck), in test [3], in test [4], in test [5] and in test [6] was “Not Active” in each case. In addition, the concentration for half-maximal inhibition (IC50) entry in test [7] was “Not Active”. In addition, the Ki result in test [3] and in test [6] was “Not Active” throughout.
In the case of `C[C@H]1O[C@H](O[C@H]2[C@H](O)[C@@H](O)[C@@H](O[C@H]3[C@H](O)[C@@H](O)C(O)O[C@@H]3CO)O[C@@H]2CO)[C@H](O)[C@@H](O)[C@@H]1N[C@H]1C=C(CO)[C@@H](O)[C@H](O)[C@H]1O` (stereo partly specified) [ACARBOSE], the half-inhibitory concentration (IC50) result in test [1] (hek293), in test [2] (mdck), in test [3], in test [4], in test [5] and in test [6] was “Not Active” each time. The half-inhibitory concentration (IC50) result in test [7] is “Not Active”. The inhibition constant Ki entry in test [3] and in test [6] was “Not Active” each time.
For the compound `CC[C@H]1[C@@H]2C[C@H]3[C@@H]4N(C)c5ccccc5[C@]45C[C@@H]([C@@H]2[C@H]5O)N3[C@@H]1O` [AJMALINE], the half-maximal inhibitory concentration (IC50) entry in test [1] (hek293), in test [2] (mdck), in test [3], in test [4], in test [5] and in test [6] was “Not Active” each time. Also, the IC50 result in test [7] is “Not Active”. For the same compound, the Ki result in test [3] and in test [6] was “Not Active” each time.
Turning to `NC12CC3CC(CC(C3)C1)C2` [AMANTADINE], the IC50 result in test [1] (hek293), in test [2] (mdck), in test [3], in test [4], in test [5] and in test [6] was “Not Active” each time. Also, the IC50 result in test [7] is “Not Active”. Further, the Ki entry in test [3] and in test [6] was “Not Active” throughout.
Turning to `NCCCNCCSP(=O)(O)O` [AMIFOSTINE], the concentration for half-maximal inhibition (IC50) result in test [1] (hek293), in test [2] (mdck), in test [3], in test [4], in test [5] and in test [6] was “Not Active” in each case. Further, the IC50 result in test [7] was “Not Active”. Further, the Ki result in test [3] and in test [6] was “Not Active” in each case.
As to `CN(C)CCC=C1c2ccccc2CCc2ccccc21` [AMITRIPTYLINE], the half-maximal inhibitory concentration (IC50) was 105 nM in test [1] (read-out: IC50); “Not Active” in test [3]; “Not Active” in test [4]; “Not Active” in test [5]; “Not Active” in test [6]; “Not Active” in test [7]. Besides, the Ki in test [1] (read-out: Ki) is 52 nM; in test [3], “Not Active”; in test [6], “Not Active”.
Consider `CC(=O)Oc1ccccc1C(=O)O` [ASPIRIN], for which the IC50 result in test [1] (hek293), in test [2] (mdck), in test [3], in test [4], in test [5] and in test [6] was “Not Active” each time. Also, the IC50 result in test [7] is reported as “Not Active”. Moreover, the Ki result in test [3] and in test [6] was “Not Active” throughout.
Take `C[C@H]1COc2c(N3CCN(C)CC3)c(F)cc3c(=O)c(C(=O)O)cn1c23.C[C@H]1COc2c(N3CCN(C)CC3)c(F)cc3c(=O)c(C(=O)O)cn1c23.O` [LEVOFLOXACIN]: the IC50 result in test [1] (hek293), in test [3], in test [4], in test [5], in test [6] and in test [7] was “Not Active” in each case. In addition, the Ki result in test [3] and in test [6] was “Not Active” in each case.
For the compound `C[C@@H]1O[C@@H](O[C@H]2C[C@@H](O)[C@]3(CO)[C@H]4[C@H](O)C[C@]5(C)[C@@H](C6=CC(=O)OC6)CC[C@]5(O)[C@@H]4CC[C@]3(O)C2)[C@H](O)[C@H](O)[C@H]1O` [OUABAIN], the half-maximal inhibitory concentration (IC50) result in test [1] (hek293), in test [3], in test [4], in test [5], in test [6] and in test [7] was “Not Active” each time. For the same compound, the Ki result in test [3] and in test [6] was “Not Active” throughout.
